The subject of assay [1] is p53 pathway in HCT116-p53+/+ cells. Nature of the assay: Activation of the p53 pathway (western blot, quantitative RT-PCR) in HCT116-p53+/+ cells. It counts as cell-based, human. The note with it: plasmid transfection. As to the method:
(§1) Figure 4 Functional analyses of GFP-MIP in living cells. […] (A) Immunoprecipitation assays with anti-GFP were performed followed by western blot with an anti-MDM2 antibody. I, input; F, flow-through; B, beads. (B) The whole cell lysates were analyzed by western blot with antibodies against p53, MDM2, p21 and β-actin. (C) mRNA levels of p53, MDM2, p21 and GAPDH were determined by quantitative reverse transcription-PCR using total RNA extracted from the cells. GAPDH was used for normalization.
Figure 5 Activation of the p53 pathway by inhibiting the MDM2-p53 interaction. […] After 48 h, immunoprecipitation assay with anti-FLAG antibody was performed followed by western blot with anti-MDM2 or anti-FLAG antibody. […] After 24 h, the whole cell lysates were analyzed by western blot with antibodies against p53, p21 and β-actin. […] After 24 h, mRNA levels of p53, MDM2, p21 and GAPDH were determined by quantitative reverse transcription-PCR using total RNA extracted from the cells. GAPDH was used for normalization.
(§2) Whole cell lysate was analyzed by western blot analysis with antibodies against p53 (Cell signaling, Beverly, MA, […]), MDM2 (SMP14, Santa Cruz), p21 (SX118, Pharmingen, San Diego, CA, USA) and β-actin (AC-15, Sigma). The blots were developed using an ECL chemiluminescence kit (GE Healthcare, Waukesha, WI, USA).
Total RNA was extracted with the RNeasy mini kit from cells. The RNA was used as template for the real-time RT-PCR reaction with the QuantiTect SYBR Green RT-PCR kit (Qiagen) using the p53F and p53R primer set, the mdm2F and mdm2R primer set or the p21F and p21R primer set. The GAPDH gene was used for normalization with the Light cycler primer sets (Roche, Basel, Switzerland).

A further assay has as its system HCT116-p53+/+ cells. Nature of the assay: WST-1 cell viability / cell growth assay in HCT116-p53+/+ cells. The note with it: plasmid transfection, data not shown. The assay is classed as cell-based.
Assay [2] deals with p53 pathway in SW480 cells (p53 mt). Put plainly: Activation of the p53 pathway (western blot) in SW480 cells. It counts as cell-based. Conditions: SW480 cells containing inactive mutated p53, plasmid transfection. As to the method:
as §1, §2
(A western blot detects proteins with antibodies after separation by electrophoresis.)

The target of another assay is T1, MDM2-p53 interaction (Homo sapiens, UniProt Q00987).
T1 construct: In vitro-translated MDM2 (7–300 amino acids) mixed with the synthetic peptides; made in house; host or cells: MDM2: in vitro translated (wheat germ cell-free system for the bait preparation); p53: E. coli BL21 (DE3) codon+
Nature of the assay: ELISA of MDM2 (7-300) bound to immobilized His6-p53 in the presence of synthetic peptides. It counts as binding. As for the experimental part: (§3) The resulting plasmid was transformed into the E. coli strain BL21 (DE3) codon+. The cells were grown in LB with 50 µg/ml carbenicillin at 37°C to an optical density (OD600) of 0.5 and induced with 1 mM IPTG for 6 h. […] After washing with PBST, the plates were blocked with 5% skim milk at 4°C for 30 min. […] The RNA was purified with the RNeasy mini kit and in vitro-translated in a wheat germ cell-free translation system to produce MDMX protein.
In general terms: An ELISA detects its analyte on a solid surface through an enzyme-linked reagent.

The target of a further assay is T2, MDMX-p53 interaction (Homo sapiens, UniProt O15151).
T2 construct: the cDNA of MDMX (1–200 amino acids) was amplified by PCR; made in house; host or cells: MDMX: wheat germ cell-free translation system; p53: E. coli BL21 (DE3) codon+
T2 sequence (O15151 1-200): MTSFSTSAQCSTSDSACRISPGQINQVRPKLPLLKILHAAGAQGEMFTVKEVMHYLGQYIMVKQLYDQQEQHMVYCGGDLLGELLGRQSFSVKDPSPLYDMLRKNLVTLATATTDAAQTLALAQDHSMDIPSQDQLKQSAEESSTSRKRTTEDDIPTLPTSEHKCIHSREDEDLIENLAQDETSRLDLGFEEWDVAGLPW
Nature of the assay: ELISA of MDMX (1-200) bound to immobilized His6-p53 in the presence of synthetic peptides. The assay is classed as binding. As to the method:
as §3

The target in assay [3] is T3, MDM2_(7–300) fused to the TAP tag (human (A549 cell-derived cDNA library), UniProt Q00987 7-300).
T3 construct: MDM2, residues 7-300, cDNA amplified from an A549 cell-derived cDNA library; primers and plasmid are named MDM(1–294) / pCMV-MDM294-CBPzz; The ELISA methods name only 'in vitro-translated MDM2 (7–300 amino acids)'; also called TAP-tagged MDM2; MDM2 (7–300 amino acids); source: in vitro translated (wheat germ cell-free translation system); immobilised on IgG beads for the pull-down
T3 sequence (Q00987 7-300): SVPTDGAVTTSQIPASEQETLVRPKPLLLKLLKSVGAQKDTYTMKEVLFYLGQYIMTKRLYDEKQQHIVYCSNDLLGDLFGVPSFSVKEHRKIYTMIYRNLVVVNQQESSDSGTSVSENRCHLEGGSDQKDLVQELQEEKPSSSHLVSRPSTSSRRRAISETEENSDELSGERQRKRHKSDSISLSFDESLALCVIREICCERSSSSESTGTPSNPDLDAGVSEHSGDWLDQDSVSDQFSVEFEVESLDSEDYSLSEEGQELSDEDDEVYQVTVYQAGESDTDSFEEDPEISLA
Nature of the assay: ELISA; competition: synthetic peptide at various concentrations mixed with in vitro-translated MDM2 (7–300) or MDMX (1–200) in binding buffer (5% skim milk, 10% glycerol), added to His6-p53 immobilized on copper-coated plates, 1 h at room temperature; detection with anti-MDM2 (SMP14) or anti-FLAG M2. The note with it: one partner purified.

The target of a further assay is T4, MDMX (1–200 amino acids) (human, UniProt O15151 1-200).
T4 construct: MDMX, residues 1-200, cDNA amplified from a Human Mosaic cDNA template; also called MDMX(1–200)-FLAG; source: in vitro translated (wheat germ cell-free translation system)
T4 sequence (looked up): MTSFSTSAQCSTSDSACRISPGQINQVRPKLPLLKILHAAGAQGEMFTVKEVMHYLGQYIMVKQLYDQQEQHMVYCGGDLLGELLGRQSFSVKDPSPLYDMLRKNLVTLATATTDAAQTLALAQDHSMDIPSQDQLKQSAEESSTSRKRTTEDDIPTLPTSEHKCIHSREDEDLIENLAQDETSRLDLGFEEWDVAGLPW
The assay is described as above. The note with it: one partner purified.

Data on nine molecules can be found in article PMC3057987 (PLoS ONE, 2011).

Ends that are not written are not given here. A value given as a limit tells only on which side of the number the result lay.

In the case of “GFP-MIP: GFP-fused MIP (PRFWEYWLRLME; also: GFP-fused, end not given here)”, in assay [1] (quantitative RT-PCR), the “MDM2 and p21 at the mRNA level” value is on record as “increased”. For the same molecule, the “p53 mRNA level” value in assay [1] (quantitative RT-PCR) is reported as “no effect”. The figures for the “p53 and its targets (MDM2 and p21) at the protein level” value in assay [1] (western blot) and in assay [2] were “increase” and “not”, respectively. Moreover, the “proliferation of cells expressing the GFP-fused peptide” value in the assay with HCT116-p53+/+ cells is “not inhibited”. Broadly, the IC50 is the concentration that gives 50% inhibition. Regarding LTAEHYAAQATS [3A, reference compound], the concentration for half-maximal inhibition (IC50) on MDM2-p53 interaction and on MDMX-p53 interaction was greater than 100000 nM throughout. On to PRFWEAWLRLME [MIP (Y6A)], for which the IC50 on MDM2-p53 interaction was greater than 100000 nM. As for PRFWEYALRLME [MIP (W7A)], the IC50 at MDM2-p53 interaction was greater than 100000 nM.

B1: MIP (MDM2 Inhibitory Peptide), synthetic peptide (peptide)
peptide: PRFWEYWLRLME
notes: 12-mer selected by mRNA display from a partially randomized library; also called X12-1; source: synthetic peptide
As to B1, the IC50 was 10 nM in assay [3] and 120 nM with MDMX (1–200 amino acids).

B2: MIP (F3A), synthetic peptide (peptide)
peptide: PRAWEYWLRLME
notes: MIP with Phe3 replaced by Ala; source: synthetic peptide
Consider B2, for which the IC50 in assay [3] turned out to be 570 nM.

B3: MIP (R9A), synthetic peptide (peptide)
peptide: PRFWEYWLALME
notes: MIP with Arg9 replaced by Ala; source: synthetic peptide
Regarding B3, in assay [3], the 50% inhibitory concentration (IC50) worked out at 20 nM.

B4: MIP (L10A), synthetic peptide (peptide)
peptide: PRFWEYWLRAME
notes: MIP with Leu10 replaced by Ala; source: synthetic peptide
Turning to B4, in assay [3], the IC50 was 1140 nM.

B5: MIP (M11A), synthetic peptide (peptide)
peptide: PRFWEYWLRLAE
notes: MIP with Met11 replaced by Ala; source: synthetic peptide
In turn, B5 returned a half-inhibitory concentration (IC50) in assay [3] of 400 nM.
